According to ChEMBL document CHEMBL3797180, “Squaramides with cytotoxic activity against human gastric carcinoma cells HGC-27: synthesis and mechanism of action” (Medchemcomm, 2016):
Calls of active or inactive are those of the source. The calls are words filed in the database; no cut-off is given here.

What was measured:
HGC-27 [1] = test: Cytotoxicity against HGC27 cells assessed as inhibition of cell viability at 100 uM after 24 hrs by MTT assay; type: functional, cell-based; settings: Homo sapiens
HeLa [2] = test: Cytotoxicity against human HeLa cells assessed as inhibition of cell viability at 100 uM after 24 hrs by MTT assay; type: functional, cell-based
HeLa [3] = test: Cytotoxicity against human HeLa cells assessed as inhibition of cell viability at 20 uM after 24 hrs by MTT assay; type: functional, cell-based
HGC-27 [4] = test: Cytotoxicity against HGC27 cells assessed as inhibition of cell viability at 20 uM after 24 hrs by MTT assay; type: functional, cell-based; settings: Homo sapiens
[5] = Cytotoxicity against HGC27 cells after 24 hrs by MTT assay; type: functional, cell-based; settings: Homo sapiens, HGC-27, 24 h
HeLa [6] = test: Cytotoxicity against human HeLa cells after 24 hrs by MTT assay; type: functional, cell-based
HGC-27 [7] = test: Induction of apoptosis in HGC27 cells assessed as early apoptotic cells at 2 uM after 24 hrs by Annexin-V-FITC/propidium iodide staining-based flow cytometry (reference value: 6.7%); type: functional, Homo sapiens
HGC-27 [8] = test: Induction of apoptosis in HGC27 cells assessed as necrotic cells at 2 uM after 24 hrs by Annexin-V-FITC/propidium iodide staining-based flow cytometry; type: functional, Homo sapiens
HGC-27 [9] = test: Induction of apoptosis in HGC27 cells assessed as apoptotic cells after 24 hrs by Annexin-V-FITC/propidium iodide staining-based flow cytometry; type: functional, cell-based; settings: Homo sapiens
HGC-27 [10] = test: Induction of apoptosis in HGC27 cells assessed as late apoptotic cells at 2 uM after 24 hrs by Annexin-V-FITC/propidium iodide staining-based flow cytometry (reference value: 6.7%); type: functional, Homo sapiens

Row | SMILES | inhibition (HGC-27 [1]) | inhibition (HeLa [2]) | inhibition (HeLa [3]) | inhibition (HGC-27 [4]) | other results
1 | COc1c(Nc2cc(F)c(F)c(F)c2)c(=O)c1=O | inactive | inactive | – | – | –
2 | C[C@H](c1c(Nc2cc(F)cc(F)c2)c(=O)c1=O)c1cccc2ccccc12 | – | – | Active | Active | –
3 | COc1ccc(Nc2c(OC)c(=O)c2=O)cc1 | inactive | inactive | – | – | –
4 | O=c1c(Nc2ccc(C(F)(F)F)cc2)c(N[C@@H]2CCCC[C@@H]2N2CCCCC2)c1=O | – | – | inactive | inactive | –
5 | O=c1c(Nc2ccc(C(F)(F)F)cc2)c(N[C@@H]2CCCC[C@H]2N2CCCCC2)c1=O | – | – | inactive | inactive | –
6 | C=CC1CN2CCC1CC2[C@@H](Nc1c(Nc2cc(C(F)(F)F)cc(C(F)(F)F)c2)c(=O)c1=O)c1ccnc2ccccc12 (stereo partly drawn) | Active | Active | Active | Active | IC50 [5]: 8.12 µM; IC50 (HeLa [6]): 11.3 µM
7 | C=CC1CN2CCC1CC2[C@@H](Nc1c(NCc2cc(C(F)(F)F)cc(C(F)(F)F)c2)c(=O)c1=O)c1ccnc2ccc(OC)cc12 (stereo partly drawn) | Active | Active | – | – | –
8 | O=c1c(NCc2cc(C(F)(F)F)cc(C(F)(F)F)c2)c(N[C@@H]2CCCC[C@H]2N2CCCCC2)c1=O | Active | Active | – | – | –
9 | O=c1c(Nc2cc(C(F)(F)F)cc(C(F)(F)F)c2)c(N[C@@H]2CCCC[C@H]2N2CCCCC2)c1=O | Active | Active | Active | Active | –
10 | COc1c(Nc2cc(F)cc(F)c2)c(=O)c1=O | inactive | inactive | – | – | –
11 | COc1c(N[C@H]2c3ccccc3C[C@H]2O)c(=O)c1=O | inactive | inactive | – | – | –
12 | COc1c(N[C@@H]2CCCC[C@H]2NS(=O)(=O)c2ccc(C)cc2)c(=O)c1=O | inactive | inactive | – | – | –
13 | COc1c(N[C@@H](C)c2cccc3ccccc23)c(=O)c1=O | inactive | inactive | – | – | –
14 | COc1c(Nc2cc(OC(C)C)c(Cl)cc2Cl)c(=O)c1=O | inactive | inactive | – | – | –
15 | COc1c(Nc2ccc([N+](=O)[O-])cc2)c(=O)c1=O | inactive | inactive | – | – | –
16 | COc1cccc2c1C(=O)c1c(O)c3c(c(O)c1C2=O)C[C@@](O)(C(=O)CO)C[C@@H]3O[C@H]1C[C@H](N)[C@H](O)[C@H](C)O1 [DOXORUBICIN] | – | – | – | – | Activity (HGC-27 [7]): 3.2%; IC50 [5]: 37.4 µM; Activity (HGC-27 [8]): 32.4%; Activity (HGC-27 [9]): Dose-dependent effect; Activity (HGC-27 [10]): 16.7%
17 | C=CC1CN2CCC1CC2[C@@H](Nc1c(Nc2ccc(C(F)(F)F)cc2)c(=O)c1=O)c1ccnc2ccccc12 (stereo partly drawn) | Active | Active | Active | Active | IC50 [5]: 4.53 µM; IC50 (HeLa [6]): 10.8 µM
18 | O=c1c(Nc2cc(C(F)(F)F)cc(C(F)(F)F)c2)c(N[C@@H](CO)Cc2ccccc2)c1=O | Active | Active | inactive | inactive | –

Row | SMILES | inhibition (HGC-27 [1]) | inhibition (HeLa [2]) | inhibition (HeLa [3]) | inhibition (HGC-27 [4]) | other results
19 | CCc1cc(C#N)ccc1Nc1c(OC)c(=O)c1=O | inactive | inactive | – | – | –
20 | Cc1ccc(S(=O)(=O)N[C@@H]2CCCC[C@H]2Nc2c(NCc3cc(C(F)(F)F)cc(C(F)(F)F)c3)c(=O)c2=O)cc1 | Active | Active | inactive | inactive | –
21 | C[C@@H](Nc1c(Nc2cc(C(F)(F)F)cc(C(F)(F)F)c2)c(=O)c1=O)c1ccccc1 | Active | Active | inactive | inactive | –
22 | C=CC1CN2CCC1CC2[C@@H](Nc1c(Nc2cc(C(F)(F)F)cc(C(F)(F)F)c2)c(=O)c1=O)c1ccnc2ccc(OC)cc12 (stereo partly drawn) | Active | Active | Active | Active | IC50 [5]: 8.21 µM; IC50 (HeLa [6]): 15.2 µM
23 | O=c1c(Nc2cc(C(F)(F)F)cc(C(F)(F)F)c2)c(N[C@H]2c3ccccc3C[C@H]2O)c1=O | Active | Active | – | – | –
24 | O=c1c(Nc2cc(F)cc(F)c2)c(N[C@@H](c2ccccc2)C(O)(c2ccccc2)c2ccccc2)c1=O | – | – | inactive | Active | IC50 [5]: 3.39 µM; IC50 (HeLa [6]): > 20 µM
25 | CN(C)[C@@H]1CCCC[C@H]1Nc1c(Nc2cc(C(F)(F)F)cc(C(F)(F)F)c2)c(=O)c1=O | Active | Active | inactive | inactive | –
26 | COc1c(Nc2ccccc2)c(=O)c1=O | inactive | inactive | – | – | –
27 | COc1c(Nc2ccc(C(C)(C)C)cc2)c(=O)c1=O | inactive | inactive | – | – | –
28 | COc1c(N(C)c2ccccc2)c(=O)c1=O | inactive | inactive | – | – | –
29 | COc1ccc(Nc2c(OC)c(=O)c2=O)c(OC)c1 | inactive | inactive | – | – | –
30 | Cc1ccc(S(=O)(=O)N[C@@H]2CCCC[C@H]2Nc2c(Nc3cc(C(F)(F)F)cc(C(F)(F)F)c3)c(=O)c2=O)cc1 | Active | Active | inactive | inactive | –
31 | C=CC1CN2CCC1CC2[C@@H](Nc1c(Nc2ccc(C(F)(F)F)cc2)c(=O)c1=O)c1ccnc2ccc(OC)cc12 (stereo partly drawn) | Active | Active | inactive | Active | IC50 [5]: 12.8 µM; IC50 (HeLa [6]): > 20 µM
32 | O=c1c(Nc2ccc3ccccc3c2-c2c(O)ccc3ccccc23)c(N[C@@H]2CCCC[C@H]2N2CCCC2)c1=O | – | – | inactive | Active | IC50 [5]: 10.8 µM; IC50 (HeLa [6]): > 20 µM
33 | O=c1c(Nc2ccc3ccccc3c2-c2c(O)ccc3ccccc23)c(N[C@@H]2CCCC[C@H]2N2CCCCC2)c1=O | – | – | inactive | Active | IC50 [5]: 11.1 µM; IC50 (HeLa [6]): > 20 µM
34 | O=c1c(Nc2cc(F)c(F)c(F)c2)c(N[C@@H]2CCCC[C@H]2N2CCCCC2)c1=O | – | – | inactive | inactive | –
35 | C=CC1CN2CCC1CC2[C@H](Nc1c(NCc2cc(C(F)(F)F)cc(C(F)(F)F)c2)c(=O)c1=O)c1ccnc2ccccc12 (stereo partly drawn) | Active | Active | Active | Active | IC50 [5]: 3.01 µM; IC50 (HeLa [6]): 12.1 µM
36 | COc1c(Nc2ccc(C(F)(F)F)cc2)c(=O)c1=O | inactive | inactive | – | – | –
